Data reported in PubChem BioAssay AID1259407 (Chemical Carcinogenesis Research Information System (CCRIS), 2018).
Active and inactive are the calls of the source. No rule for the calls is given here.

System: CCRIS mutagenicity, Ames/micronucleus/aberration tests
Assay: CCRIS mutagenicity studies

O=P1(N(CCCl)CCCl)NCCCO1 (stereo not drawn)
mutagenic call (End Point: IN VITRO CHROMOSOMAL ABERRATIONS, Test System: CHL/IU CELLS, Metabolic Activation: RAT, LIVER, S-9, PHENOBARBITAL AND 5,6-BENZOFLAVONE): active; positive (structural changes)
mutagenic call (End Point: IN VITRO CHROMOSOMAL ABERRATIONS, Test System: HUMAN LYMPHOCYTES, Metabolic Activation: RAT LIVER S-9, AROCLOR 1254): active; positive
mutagenic call (End Point: IN VITRO MICRONUCLEUS, Test System: BOVINE LYMPHOCYTES, Metabolic Activation: S-9 MIX, AROCLOR 1254): active; positive
mutagenic call (End Point: IN VITRO MICRONUCLEUS, Test System: CHL/IU CELLS, Metabolic Activation: RAT, LIVER, S-9, PHENOBARBITAL AND 5,6-BENZOFLAVONE): active; positive
mutagenic call (End Point: IN VITRO MICRONUCLEUS, Test System: CHO CELLS, Metabolic Activation: RAT, LIVER, S-9, AROCLOR 1254): active; positive
mutagenic call (End Point: IN VIVO MICRONUCLEUS, Test System: BLOOD ERYTHROCYTES, Species: MOUSE, Strain/Sex: CD-1/MALE, Route: ORAL): active; positive
mutagenic call (End Point: IN VIVO MICRONUCLEUS, Test System: BONE MARROW CELLS, Species: MOUSE, Strain/Sex: CD-1/MALE, Route: GAVAGE): active; positive
mutagenic call (End Point: IN VIVO MICRONUCLEUS, Test System: BONE MARROW ERYTHROCYTES, Species: HAMSTER, Strain/Sex: SYRIAN/MALE, Route: INTRAPERITONEAL): active; positive
mutagenic call (End Point: IN VIVO MICRONUCLEUS, Test System: BONE MARROW POLYCHROMATIC ERYTHROCYTES, Species: MOUSE, Strain/Sex: SWISS/MALE, Route: IP): active; positive
mutagenic call (End Point: In vivo chromosomal aberrations, Test System: Bone marrow cells, Species: Rat, Strain/Sex: Wistar/Male, Route: Intraperitoneal injection): active; positive (structural changes: gaps, breaks). effect by 100 or 200 mg/kg alpha-li
mutagenic call (End Point: In vivo micronucleus, Test System: Bone marrow erythrocytes, Species: Mouse, Strain/Sex: NMRI/Male, Route: Intraperitoneal): active; positive (hawthorn extract significantly reduced micronucleated polychromatic er
mutagenic call (End Point: In vivo micronucleus, Test System: Bone marrow erythrocytes, Species: Mouse, Strain/Sex: Swiss/Male, Route: Intraperitoneal): active; positive (pue or 4-nc showed dose-dependent protective effect against cyclophosp
mutagenic call (End Point: In vivo micronucleus, Test System: Micronucleated hepatocytes, Species: Rat, Strain/Sex: F344/Male, Route: Oral): inactive; negative
mutagenic call (End Point: In vivo micronucleus, Test System: Peripheral blood and bone marrow erythrocytes, Species: Dog, Strain/Sex: Beagle/Male and female, Route: Intravenous): active; positive. evaluations by flow cytometry and manual counting; multi-laboratory st
mutagenic call (End Point: MICRONUCLEUS, Test System: BONE MARROW, Species: RAT, Strain/Sex: WISTAR, Route: INTRAPERITONEAL): active; positive
mutagenic call (Test System: AMES SALMONELLA TYPHIMURIUM, Strain/Indicator: TA97, Metabolic Activation: NONE, Method: STANDARD PLATE): inactive; negative
mutagenic call (Test System: AMES SALMONELLA TYPHIMURIUM, Strain/Indicator: TA97, Metabolic Activation: RAT, LIVER, S-9, PHENOBARBITAL AND ALPHA-NAPHTHOFLAVONE, Method: STANDARD PLATE): inactive; negative
mutagenic call (Test System: AMES SALMONELLA TYPHIMURIUM, Strain/Indicator: TA98, Metabolic Activation: NONE, Method: PREINCUBATION): inactive; negative
mutagenic call (Test System: AMES SALMONELLA TYPHIMURIUM, Strain/Indicator: TA98, Metabolic Activation: NONE, Method: SPIRAL ASSAY): inactive; negative
mutagenic call (Test System: AMES SALMONELLA TYPHIMURIUM, Strain/Indicator: TA98, Metabolic Activation: NONE, Method: STANDARD PLATE): inactive; negative
mutagenic call (Test System: AMES SALMONELLA TYPHIMURIUM, Strain/Indicator: TA98, Metabolic Activation: RAT, LIVER, S-9, AROCLOR 1254, Method: SPIRAL ASSAY): inactive; negative
mutagenic call (Test System: AMES SALMONELLA TYPHIMURIUM, Strain/Indicator: TA98, Metabolic Activation: RAT, LIVER, S-9, PHENOBARBITAL AND ALPHA-NAPHTHOFLAVONE, Method: STANDARD PLATE): inactive; negative
mutagenic call (Test System: AMES SALMONELLA TYPHIMURIUM, Strain/Indicator: TA98, Metabolic Activation: S-9, Method: PREINCUBATION): inactive; negative
mutagenic call (Test System: AMES SALMONELLA TYPHIMURIUM, Strain/Indicator: TA98, Metabolic Activation: S-9, Method: STANDARD PLATE): inactive; negative
mutagenic call (Test System: AMES SALMONELLA TYPHIMURIUM, Strain/Indicator: TA100, Metabolic Activation: MOUSE, LIVER, S-9, PHENOBARBITAL AND BETA-NAPHTHOFLAVONE, Method: STANDARD PLATE): active; positive
mutagenic call (Test System: AMES SALMONELLA TYPHIMURIUM, Strain/Indicator: TA100, Metabolic Activation: MOUSE, LIVER, S-9, PHENOBARBITAL, BETA-NAPHTHOFLAVONE, ISOSAFROLE, ETHANOL, PREGNENOLONE AND 16ALPHA-CARBONITRILE, Method: STANDARD PLATE): active; positive
mutagenic call (Test System: AMES SALMONELLA TYPHIMURIUM, Strain/Indicator: TA100, Metabolic Activation: NONE, Method: PREINCUBATION): inactive; negative
mutagenic call (Test System: AMES SALMONELLA TYPHIMURIUM, Strain/Indicator: TA100, Metabolic Activation: NONE, Method: SPIRAL ASSAY): active; positive
mutagenic call (Test System: AMES SALMONELLA TYPHIMURIUM, Strain/Indicator: TA100, Metabolic Activation: RAT, LIVER, PARENCHYMAL CELLS (CRYOPRESERVED), Method: PREINCUBATION): inactive; negative
mutagenic call (Test System: AMES SALMONELLA TYPHIMURIUM, Strain/Indicator: TA100, Metabolic Activation: RAT, LIVER, PARENCHYMAL CELLS (FRESHLY ISOLATED OR STORED FOR 1 D), Method: PREINCUBATION): active; positive
mutagenic call (Test System: AMES SALMONELLA TYPHIMURIUM, Strain/Indicator: TA100, Metabolic Activation: RAT, LIVER, S-9, AROCLOR 1254, Method: SPIRAL ASSAY): active; positive
mutagenic call (Test System: AMES SALMONELLA TYPHIMURIUM, Strain/Indicator: TA100, Metabolic Activation: RAT, LIVER, S-9, AROCLOR 1254, Method: STANDARD PLATE): active; positive
mutagenic call (Test System: AMES SALMONELLA TYPHIMURIUM, Strain/Indicator: TA100, Metabolic Activation: RAT, LIVER, S-9, PHENOBARBITAL AND ALPHA-NAPHTHOFLAVONE, Method: STANDARD PLATE): active; positive
